Measurements: US20250367343A1, “CLINICAL DRESSING LOADED WITH COFFEE EXTRACT” (KING SAUD UNIVERSITY, priority 2024, published 2025)

System: methicillin-resistant Staphylococcus aureus (ATCC 43300)
Assay: Standard antibiotic sensitivity test using the Vitek-2 system
Type: cell-based
Conditions: strain ATCC 43300

| Molecule | antibiotic sensitivity of the MRSA strain |
| --- | --- |
| CC1(C)S[C@@H]2[C@H](NC(=O)[C@H](N)c3ccccc3)C(=O)N2[C@H]1C(=O)O [ampicillin] | resistant |
| CO[C@@]1(NC(=O)Cc2cccs2)C(=O)N2C(C(=O)O)=C(COC(N)=O)CS[C@@H]21 [cefoxitin] | resistant |
| Cc1onc(-c2ccccc2)c1C(=O)N[C@@H]1C(=O)N2[C@@H]1SC(C)(C)[C@@H]2C(=O)O [oxacillin] | resistant |
| CC1(C)S[C@@H]2[C@H](NC(=O)Cc3ccccc3)C(=O)N2[C@H]1C(=O)O [penicillin G] | resistant |
| amoxicillin-alavulanate | resistant |
